Results reported in ChEMBL document CHEMBL6178012, “Discovery of RP-1664: A First-in-Class Orally Bioavailable, Selective PLK4 Inhibitor” (J Med Chem, 2025).
One block for each molecule: values may come before it.

What was measured:
MCF7 = assay: cells; details: Homo sapiens
in vitro [1] = details: human, cryopreserved hepatocytes
in vitro [2] = details: dog, MDCK
in vitro [3] = details: mouse, liver microsomes
in vivo [4] = details: female, CD-1, mouse, iv, 1 mg/kg
in vivo [5] = details: female, CD-1, mouse, po, 5 mg/kg
in vitro [6] = details: rhesus monkey, liver microsomes
in vitro [7] = details: dog, liver microsomes
[8] = biological target: T1, Serine/threonine-protein kinase PLK4 (Homo sapiens) (UniProt O00444); details: Mus musculus; SCID-Beige; CAL-148; dose lower 6.0 mg/kg, dose upper […], route po, time 7.0 day
T1 sequence (whole entry): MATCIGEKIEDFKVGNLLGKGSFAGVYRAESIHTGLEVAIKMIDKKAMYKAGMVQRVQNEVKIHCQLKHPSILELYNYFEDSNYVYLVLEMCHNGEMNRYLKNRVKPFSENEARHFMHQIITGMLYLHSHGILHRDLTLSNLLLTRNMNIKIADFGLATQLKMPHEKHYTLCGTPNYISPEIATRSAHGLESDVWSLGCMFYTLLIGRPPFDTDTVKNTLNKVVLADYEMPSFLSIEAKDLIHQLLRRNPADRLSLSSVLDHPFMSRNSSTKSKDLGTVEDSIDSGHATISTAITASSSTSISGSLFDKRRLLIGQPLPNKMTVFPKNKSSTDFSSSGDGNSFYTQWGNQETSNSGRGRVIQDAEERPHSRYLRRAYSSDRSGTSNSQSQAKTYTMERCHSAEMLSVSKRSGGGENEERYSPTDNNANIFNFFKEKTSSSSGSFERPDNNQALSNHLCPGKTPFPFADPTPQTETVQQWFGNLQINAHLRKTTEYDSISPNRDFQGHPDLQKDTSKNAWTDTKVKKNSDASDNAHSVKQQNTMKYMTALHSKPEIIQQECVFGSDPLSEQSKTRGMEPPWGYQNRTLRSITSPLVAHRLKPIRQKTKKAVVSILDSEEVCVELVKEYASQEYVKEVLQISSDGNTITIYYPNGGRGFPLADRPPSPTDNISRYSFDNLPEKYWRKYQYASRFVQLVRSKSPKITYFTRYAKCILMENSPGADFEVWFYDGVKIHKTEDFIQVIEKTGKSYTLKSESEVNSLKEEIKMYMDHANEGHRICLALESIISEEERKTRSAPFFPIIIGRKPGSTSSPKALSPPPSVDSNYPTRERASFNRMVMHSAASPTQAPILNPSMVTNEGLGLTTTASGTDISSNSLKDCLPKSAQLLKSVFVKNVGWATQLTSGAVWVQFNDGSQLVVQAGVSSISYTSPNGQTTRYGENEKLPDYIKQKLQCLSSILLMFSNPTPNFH

in vitro [9] = details: human, Caco-2
in vivo [10] = details: cynomolgus monkey, iv, 0.5 mg/kg
in vivo [11] = details: male, Beagle, dog, iv, 0.5 mg/kg
in vivo [12] = details: cynomolgus monkey, po, 1.25 mg/kg
in vitro [13] = details: rat, cryopreserved hepatocytes
in vitro [14] = details: human, liver microsomes
in vivo [15] = details: male, Sprague-Dawley, rat, po
in vitro [16] = details: human, Caco-2; remark: listed apart in the source
in vitro [17] = details: rat, liver microsomes
in vitro [18] = details: dog, cryopreserved hepatocytes
in vivo [19] = details: male, Beagle, dog, po, 1.15 mg/kg
in vitro [20] = details: mouse, cryopreserved hepatocytes
in vitro [21] = details: rhesus monkey, cryopreserved hepatocytes
[22] = biological target: T1, Serine/threonine-protein kinase PLK4 (Homo sapiens); details: Mus musculus; SCID-Beige; CAL-148; dose lower 6.0 mg/kg, dose upper […], route po, time 4.0 day

EC50 (MCF7): 160 nM
hepatocyte CLint at 1 µM (in vitro [1]): 42 µL/min/1e6 cells
SMILES: Cc1cc(Nc2nc(N(C)c3cc(F)c(S(C)(=O)=O)cc3F)nc(-c3cnn(C)c3)c2C2CC2)n[nH]1

EC50 (MCF7): 210 nM
hepatocyte CLint at 1 µM (in vitro [1]): 8.2 µL/min/1e6 cells
SMILES: Cc1cc(Nc2nc(N(C)c3ccc(S(=O)(=O)C4CC4)cc3F)nc(-c3cnn(C)c3)c2C2CC2)n[nH]1

Papp A→B at 2 h, 1 µM (in vitro [2]): 14 ×10⁻⁶ cm/s
microsomal CLint at 1 µM (in vitro [3]): 31 µL/min/mg
SMILES: COc1c(Nc2cc(C)[nH]n2)nc(Sc2ccc(S(C)(=O)=O)cc2F)nc1N1CCOCC1

EC50 (MCF7): 2500 nM
SMILES: Cc1cc(Nc2nc(Oc3ccc(S(C)(=O)=O)cc3F)nc(-c3cnn(C)c3)c2C2CC2)n[nH]1

clearance at 24 h (in vivo [4]): 11 mL/min/kg
bioavailability at 24 h (in vivo [5]): ≥ 100%
microsomal CLint at 1 µM (in vitro [6]): < 7.7 µL/min/mg
microsomal CLint at 1 µM (in vitro [7]): < 7.7 µL/min/mg
inhibition [8]: Dose-dependent-effect
efflux ratio at […], 10 µM (in vitro [9]): 8.1
clearance at 24 h (in vivo [10]): 14 mL/min/kg
clearance at 24 h (in vivo [11]): 30 mL/min/kg
bioavailability at 24 h (in vivo [12]): 96%
hepatocyte CLint at 1 µM (in vitro [13]): < 3.8 µL/min/1e6 cells
microsomal CLint at 1 µM (in vitro [3]): < 7.7 µL/min/mg
microsomal CLint at 1 µM (in vitro [14]): < 7.7 µL/min/mg
EC50 (MCF7): 51 nM
bioavailability at 24 h (in vivo [15]): 28%
Papp at […], 10 µM (in vitro [16]): 4.6 ×10⁻⁶ cm/s
hepatocyte CLint at 1 µM (in vitro [1]): < 3.8 µL/min/1e6 cells
microsomal CLint at 1 µM (in vitro [17]): < 7.7 µL/min/mg
hepatocyte CLint at 1 µM (in vitro [18]): < 3.8 µL/min/1e6 cells
bioavailability at 24 h (in vivo [19]): 98%
hepatocyte CLint at 1 µM (in vitro [20]): < 3.8 µL/min/1e6 cells
hepatocyte CLint at 1 µM (in vitro [21]): < 3.8 µL/min/1e6 cells
inhibition [22]: Dose-dependent-effect
SMILES: Cc1cc(Nc2nc(N(C)c3c(F)cc(S(C)(=O)=O)cc3F)nc(-c3cn(C)cn3)c2C2CC2)n[nH]1

EC50 (MCF7): 180 nM
SMILES: Cc1cc(Nc2nc(N(C)c3ccc(S(C)(=O)=O)cc3Cl)nc(-c3cnn(C)c3)c2C2CC2)n[nH]1

EC50 (MCF7): 92 nM
hepatocyte CLint at 1 µM (in vitro [1]): 51.5 µL/min/1e6 cells
SMILES: Cc1cc(Nc2nc(N(C)c3c(F)cc(S(C)(=O)=O)cc3F)nc(-c3ccnnc3)c2C2CC2)n[nH]1

EC50 (MCF7): 1700 nM
SMILES: Cc1cc(Nc2nc(Sc3ccc(S(C)(=O)=O)cc3F)nc(-c3cnn(C)c3)c2C2CC2)n[nH]1

EC50 (MCF7): 67 nM
SMILES: Cc1cc(Nc2nc(N(C)c3c(F)cc(S(C)(=O)=O)c(F)c3F)nc(-c3cnn(C)c3)c2C2CC2)n[nH]1

EC50 (MCF7): 57 nM
hepatocyte CLint at 1 µM (in vitro [1]): 12 µL/min/1e6 cells
SMILES: CN(c1nc(Nc2cc(C3CC3)[nH]n2)c(C2CC2)c(-c2cnn(C)c2)n1)c1c(F)cc(S(C)(=O)=O)cc1F

clearance at 24 h (in vivo [4]): 12 mL/min/kg
bioavailability at 24 h (in vivo [5]): 55%
efflux ratio at […], 10 µM (in vitro [9]): 6.9
EC50 (MCF7): 23 nM
Papp at […], 10 µM (in vitro [16]): 7.8 ×10⁻⁶ cm/s
hepatocyte CLint at 1 µM (in vitro [1]): 6 µL/min/1e6 cells
SMILES: Cc1cc(Nc2nc(N(C)c3c(F)cc(S(C)(=O)=O)cc3F)nc(-c3cc(C(C)(C)O)n(C)n3)c2C2CC2)n[nH]1

clearance at 24 h (in vivo [4]): 7 mL/min/kg
bioavailability at 24 h (in vivo [5]): > 100%
efflux ratio at […], 10 µM (in vitro [9]): 1.1
EC50 (MCF7): 65 nM
Papp at […], 10 µM (in vitro [16]): 28 ×10⁻⁶ cm/s
hepatocyte CLint at 1 µM (in vitro [1]): 5.3 µL/min/1e6 cells
SMILES: Cc1cc(Nc2nc(N(C)c3c(F)cc(S(C)(=O)=O)cc3F)nc(-c3cnn(C)c3)c2C2CC2)n[nH]1

Papp A→B at 2 h, 1 µM (in vitro [2]): 0.1 ×10⁻⁶ cm/s
microsomal CLint at 1 µM (in vitro [3]): > 416 µL/min/mg
SMILES: COc1c(Nc2cc(C)[nH]n2)nc(Sc2ccc(S(=O)(=O)Cc3cccc([N+](=O)[O-])c3F)cc2F)nc1N1CCCCC1

clearance at 24 h (in vivo [4]): 3 mL/min/kg
bioavailability at 24 h (in vivo [5]): 40%
efflux ratio at […], 10 µM (in vitro [9]): 4.4
EC50 (MCF7): 35 nM
Papp at […], 10 µM (in vitro [16]): 12 ×10⁻⁶ cm/s
hepatocyte CLint at 1 µM (in vitro [1]): < 3.8 µL/min/1e6 cells
SMILES: Cc1cc(Nc2nc(N(C)c3c(F)cc(S(C)(=O)=O)cc3F)nc(-c3cn4c(n3)COCC4)c2C2CC2)n[nH]1

EC50 (MCF7): 150 nM
hepatocyte CLint at 1 µM (in vitro [1]): 50.9 µL/min/1e6 cells
SMILES: Cc1cc(Nc2nc(N(C)c3c(F)cc(S(C)(=O)=O)cc3F)nc(N3CCOCC3)c2C2CC2)n[nH]1

EC50 (MCF7): 860 nM
SMILES: CN(c1nc(Nc2cc(C(F)F)[nH]n2)c(C2CC2)c(-c2cnn(C)c2)n1)c1c(F)cc(S(C)(=O)=O)cc1F

Papp A→B at 2 h, 1 µM (in vitro [2]): 8.1 ×10⁻⁶ cm/s
microsomal CLint at 1 µM (in vitro [3]): 47 µL/min/mg
SMILES: COc1c(Nc2cc(C)[nH]n2)nc(Sc2ccc(S(C)(=O)=O)cc2F)nc1N1CCCCC1

hepatocyte CLint at 1 µM (in vitro [1]): 12.8 µL/min/1e6 cells
SMILES: Cc1cc(Nc2nc(N(C)c3c(F)cc(S(C)(=O)=O)cc3F)nc(-c3cn(C)nc3CO)c2C2CC2)n[nH]1

EC50 (MCF7): 230 nM
hepatocyte CLint at 1 µM (in vitro [1]): 20.4 µL/min/1e6 cells
SMILES: C#Cc1cc(Nc2nc(N(C)c3c(F)cc(S(C)(=O)=O)cc3F)nc(-c3cnn(C)c3)c2C2CC2)n[nH]1

clearance at 24 h (in vivo [4]): 10 mL/min/kg
bioavailability at 24 h (in vivo [5]): > 100%
EC50 (MCF7): 83 nM
hepatocyte CLint at 1 µM (in vitro [1]): 50.1 µL/min/1e6 cells
SMILES: Cc1cc(Nc2nc(N(C)c3c(F)cc(S(C)(=O)=O)cc3F)nc(-c3cn(C)nc3C)c2C2CC2)n[nH]1

microsomal CLint at 1 µM (in vitro [3]): < 7.7 µL/min/mg
SMILES: COc1c(Nc2cc(C)[nH]n2)nc(Sc2ccc(S(C)(=O)=O)cc2)nc1-c1cnn(C)c1

hepatocyte CLint at 1 µM (in vitro [1]): 19.4 µL/min/1e6 cells
SMILES: Cc1cc(Nc2nc(N(C)c3c(F)cc(S(N)(=O)=O)cc3F)nc(-c3cnn(C)c3)c2C2CC2)n[nH]1

EC50 (MCF7): 430 nM
SMILES: Cc1cc(Nc2nc(N(C)c3ccc(S(C)(=O)=O)cc3F)nc(-c3cnn(C)c3)c2C2CC2)n[nH]1

microsomal CLint at 1 µM (in vitro [3]): < 7.7 µL/min/mg
EC50 (MCF7): 890 nM
SMILES: COc1c(Nc2cc(C)[nH]n2)nc(Sc2ccc(S(C)(=O)=O)cc2F)nc1-c1cnn(C)c1

EC50 (MCF7): 1300 nM
SMILES: Cc1cc(Nc2nc(Nc3ccc(S(C)(=O)=O)cc3F)nc(-c3cnn(C)c3)c2C2CC2)n[nH]1

clearance at 24 h (in vivo [4]): 9 mL/min/kg
bioavailability at 24 h (in vivo [5]): > 100%
efflux ratio at […], 10 µM (in vitro [9]): 2.5
EC50 (MCF7): 34 nM
Papp at […], 10 µM (in vitro [16]): 28 ×10⁻⁶ cm/s
hepatocyte CLint at 1 µM (in vitro [1]): 7.5 µL/min/1e6 cells
SMILES: Cc1cc(Nc2nc(N(C)c3c(F)cc(S(C)(=O)=O)cc3F)nc(-c3cn(C)c(C4CC4)n3)c2C2CC2)n[nH]1

clearance at 24 h (in vivo [4]): 15 mL/min/kg
bioavailability at 24 h (in vivo [5]): 23%
EC50 (MCF7): 140 nM
hepatocyte CLint at 1 µM (in vitro [1]): 6 µL/min/1e6 cells
SMILES: Cc1cc(Nc2nc(N(C)c3c(F)cc(S(C)(=O)=O)cc3F)nc(-c3cnn(C)c3CO)c2C2CC2)n[nH]1
